{"source": "patent US6599499B1", "about": "“Uses of diterpenoid triepoxides as an anti-proliferative agent” (priority 1999, dated 2003)", "key": {"p53 translation [1]": {"test_system": "p53 translation", "assay": "p53 translation by [35S]methionine metabolic labeling of MCF-7 cells", "format": "cell-based, human", "settings": "MCF-7, triptolide 20 ng/ml pretreatment 6 h", "description": "Metabolic labeling of MCF-7cells. Cells were grown to 80% confluence followed by pretreatment with triptolide (20 ng/ml) for 6 h in the appropriate medium. Cells were washed twice with short-term labeling medium (RPMI with 5% dialyzed FCS supplemented with L-glutamine, penicillin, and streptomycin). To deplete intracellular pools of methionine short-term labeling medium was added for 15 min at 37° C., then replaced by short-term labeling medium containing 0.1 mCi/ml [^35S] methionine (Amersham, Inc.). Cells were labeled for 30 min at 37° C. and washed with ice-cold PBS before harvesting for immunoprecipitation. The cells were lysed using RIPA buffer supplemented with protease inhibitors and immunoprecipitated using an agarose-conjugated p53 mAb (Ab-6, Oncogene Research Products) followed by 10% SDS-PAGE. The intensity of labeled p53 protein was measured by NIH Image 1.62."}, "[2]": {"test_system": "MCF-7 (breast cancer) cells", "assay": "cells", "settings": "for Percent survival: MTT after 48 h", "description": "Cell culture and luciferase assay. A549 (non-small cell lung cancer), HT-1080 (fibrosarcoma), and MCF-7 (breast cancer) cells were cultured in the appropriate media with 10% FCS supplemented with L-glutamine, penicillin, and streptomycin. p53 wild-type (+/+) and null (−/−) Mouse Embryonic Fibroblasts (MEFs) transfected with the E1A/Ras were grown in DMEM containing 15% FCS supplemented with L-glutamine, penicillin, and streptomycin. Transfections were done on MCF-7 cells using the lipofectamine Plus reagent. At 24 hours after transfection, MCF-7 cells were left untreated or treated with triptolide (20 ng/ml) or doxorubicin (100 nM) for 4, 8, and 16 hours and cells were collected for luciferase assay. Luciferase activity was measured in samples with equal protein concentration with a Luminometer (Analytical Luminescence Laboratory, San Diego, Calif.).\nCell viability assay. Cell viability was measured by an 3-(4,5-dimethylthiazol-2-yl)-2,5-diphenyltetrazolium bromide (MTT) assay as described above. Untreated or cells treated with triptolide and/or doxorubicin were harvested at the indicated times followed by the addition of MTT to the cells in a 96-well plate. Cells were solubilized with […] acidified with 0.1N HCl. The 96-plate was read at a wavelength of 590 nm on an iEMS Labsystems plate reader."}, "p53 translation [3]": {"test_system": "p53 translation", "assay": "p53 translation by 35S methionine metabolic labeling of HT1080 cells", "format": "cell-based, human", "settings": "HT1080, triptolide 20 ng/ml pretreatment 6 h", "description": "Metabolic Labeling of HT1080 Cells. Cells were grown to 80% confluence followed by pretreatment with triptolide (20 ng/ml) for 6 h in the appropriate medium. Cells were washed twice with short term labeling medium (RPMI with 5% dialyzed fetal calf serum supplemented with L-glutamine, penicillin, and streptomycin). To deplete intracellular pools of methionine, short term labeling medium was added for 15 min at 37° C. and then replaced by short term labeling medium containing 0.1 mCi/ml [35S]methionine (Amersham Pharmacia Biotech). Cells were labeled for 30 min at 37° C. and washed with ice-cold PBS before harvesting for immunoprecipitation. The cells were lysed using RIPA buffer supplemented with protease inhibitors and immunoprecipitated using an agarose-conjugated p53 mAb (Ab-6, Oncogene Research Products) followed by 10% SDS-PAGE. The intensity of labeled p53 protein was measured by NIH Image 1.62."}, "HT1080 cells": {"test_system": "HT1080 cells", "assay": "Cell viability by trypan blue exclusion, HT1080 cells (Example 5)", "description": "Cell Viability Assay. HT-1080 cells were seeded into 6-well plates at 2×10^5 per well the day before the treatment. For the inducible expression of exogenous p21 and LacZ, the stable transfectants were cultured in the presence of 5 μM ponasterone A for 16 h. […] The cells were untreated or treated with doxorubicin, triptolide, or the combination of both at indicated dosages for 8 h at 37° C. Subsequently, the medium was replaced with new media plus 5 μM ponasterone A. After 16 h incubation at 37° C., the number of viable cells within the same fields were determined by trypan blue exclusion with a 2% trypan blue solution."}, "Dx5 cells": {"test_system": "Dx5 cells", "assay": "Internucleosomal DNA laddering in Dx5 cells", "format": "cell-based, human", "description": "Cell death reagents and assays. Cell viability was measured by an MTT assay as recently described (Lee et al. (1999) J. Biol. Chem. 274:13451-13455. z-VAD-fluoromethylketone (z-VAD.fmk) was obtained from Alexis Biochemicals, San Diego, Calif. The effect of z-VAD.fmk on cell viability was analyzed by annexin and propidium iodide staining followed by FACS analysis according to the manufacturer's protocol (Clontech Laboratories, Palo Alto, Calif.). The analysis of apoptosis in histologic sections was done by terminal deoxynucleotidyl transferase (TdT)-mediated d-UTP nick end labeling (TUNEL) of slides from paraffin sections of day 3 tumors harvested from the mice 24 h after the second of two daily treatments with PG490-88 or saline. TUNEL staining was done according to the manufacturer's protocol (Boehringer Mannheim, Indianapolis, Ind.) and then the histology slides were counterstained with methyl green. DNA was isolated from cells for analysis of internucleosomal DNA laddering followed by agarose gel electrophoresis and ethidium bromide staining.\nIn FIG. 1A, ZR-75 (breast cancer), H23 (non-small cell lung cancer) and Dx5 (MDR uterine sarcoma) cell lines were treated with PG490 at dosages shown and harvested 48 h later for analysis of cell viability by an MTT assay. […]"}, "p21": {"test_system": "p21", "assay": "p21 protein level by immunoblot in MCF-7 cells", "format": "cell-based, human", "settings": "triptolide-treated MCF-7 cells", "description": "Immunoblotting. At 8 hours after triptolide and/or doxorubicin treatment cells were harvested at the times indicated and lysed using HNET buffer (50 mM HEPES pH 7.5, 100 mM NaCl, 1 mM EGTA, and 1% Triton X-100) supplemented with 1 mM DTT, 1 mM PMSF and protease inhibitors cocktail (Boehringer Mannheim, Germany). 35 μg of protein was loaded on 10% SDS-PAGE followed by transferring to PVDF membrane. Immunoblotting was performed as previously described using a p53 mouse monoclonal antibody from Oncogene Research Products (Lee et al. (1999) J Biol Chem 274:13451-5).\nImmunoblot analysis using other antibodies was performed as described above. The band intensity was measured by NIH Image 1.62."}}, "note": "“And” between values parts separate entries of the source, which are not always exact repeats. Identical values can stand only once.", "data": [{"smiles": "CC(C)[C@]12O[C@H]1[C@@H]1O[C@]13[C@]1(O[C@H]1C[C@H]1C4=C(CC[C@@]13C)C(=O)OC4)[C@@H]2O", "note": "[PG490, triptolide]", "values": [{"measurement": "increase in p53 translation", "setting": "p53 translation [1]", "result": "4.9 fold and 5 fold"}, {"measurement": "cytotoxicity at 0.02 µg/mL", "setting": "[2]; Homo sapiens, MCF7, read-out: decrease in cell viability, MCF-7, triptolide 20 ng/ml", "result": 70, "unit": "%"}, {"measurement": "Percent survival", "setting": "[2]; MCF-7, Triptolide 5 ng/ml", "result": "63.9 ± 8.1", "unit": "%"}, {"measurement": "Percent survival", "setting": "[2]; MCF-7, Triptolide 20 ng/ml", "result": "30.5 ± 7.6", "unit": "%"}, {"measurement": "DNA strand breaks", "setting": "DNA strand breaks", "result": "does not induce DNA strand breaks"}, {"measurement": "increase in p53 translation", "setting": "p53 translation [3]", "result": 4.9, "unit": "fold"}, {"measurement": "effect on cell death by carboplatinum", "setting": "HT1080 cells; A549 and HT1080 cells", "result": "enhanced cell death"}, {"measurement": "cytotoxicity at 0.02 µg/mL", "setting": "HT1080 cells; Homo sapiens, HT-1080, 24 h, read-out: reduction of HT1080 cell viability", "result": 84, "unit": "%"}, {"measurement": "DNA laddering, time it began", "setting": "Dx5 cells", "result": 6, "unit": "h"}, {"measurement": "DNA laddering, time of maximum", "setting": "Dx5 cells", "result": "≤ 16", "unit": "h"}, {"measurement": "decrease in the level of p21 protein", "setting": "p21", "result": 3, "unit": "fold"}]}]}
